Drawing on patent publication US20250320213A1, “Nitrogen-Containing Heterocyclic Compounds” (Pfizer Inc., priority 2024, published 2025), this text covers IC50 and EC50 for 18 molecules.

Experiment [1] relates to CCL17 secretion in peripheral human whole blood. Briefly: Human Whole Blood (HWB) CCL17 TR-FRET Assay (IL-13 stimulated CCL17 secretion). The following applies: Homo sapiens, 48 h, inhibition of CCL17 secretion in human whole blood, 10 ng/mL IL13, 48 hours. The class given is cell-based. In a few lines:
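IC50 values reflect inhibition of IL-13-driven CCL17 release in human whole blood. Blood was preincubated with compound 2 h, stimulated 48 h at 37 °C with IL-13 (10 ng/mL final), and serum CCL17 was measured by TR-FRET.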
Background: Time-resolved FRET reads energy transfer from a long-lived donor to a nearby acceptor.

Experiment [2] concerns the target T1, STAT6 (Homo sapiens, UniProt P42226).
T1 construct: stably transfected HaCaT keratinocyte cell line, which expresses NanoLuc luciferase reporter gene under the transcriptional control of the STAT6 responsive promoter; endogenous in cells; host or cells: HaCaT keratinocyte reporter cell line (stably transfected with a NanoLuc reporter)
T1 sequence (P42226 1-847): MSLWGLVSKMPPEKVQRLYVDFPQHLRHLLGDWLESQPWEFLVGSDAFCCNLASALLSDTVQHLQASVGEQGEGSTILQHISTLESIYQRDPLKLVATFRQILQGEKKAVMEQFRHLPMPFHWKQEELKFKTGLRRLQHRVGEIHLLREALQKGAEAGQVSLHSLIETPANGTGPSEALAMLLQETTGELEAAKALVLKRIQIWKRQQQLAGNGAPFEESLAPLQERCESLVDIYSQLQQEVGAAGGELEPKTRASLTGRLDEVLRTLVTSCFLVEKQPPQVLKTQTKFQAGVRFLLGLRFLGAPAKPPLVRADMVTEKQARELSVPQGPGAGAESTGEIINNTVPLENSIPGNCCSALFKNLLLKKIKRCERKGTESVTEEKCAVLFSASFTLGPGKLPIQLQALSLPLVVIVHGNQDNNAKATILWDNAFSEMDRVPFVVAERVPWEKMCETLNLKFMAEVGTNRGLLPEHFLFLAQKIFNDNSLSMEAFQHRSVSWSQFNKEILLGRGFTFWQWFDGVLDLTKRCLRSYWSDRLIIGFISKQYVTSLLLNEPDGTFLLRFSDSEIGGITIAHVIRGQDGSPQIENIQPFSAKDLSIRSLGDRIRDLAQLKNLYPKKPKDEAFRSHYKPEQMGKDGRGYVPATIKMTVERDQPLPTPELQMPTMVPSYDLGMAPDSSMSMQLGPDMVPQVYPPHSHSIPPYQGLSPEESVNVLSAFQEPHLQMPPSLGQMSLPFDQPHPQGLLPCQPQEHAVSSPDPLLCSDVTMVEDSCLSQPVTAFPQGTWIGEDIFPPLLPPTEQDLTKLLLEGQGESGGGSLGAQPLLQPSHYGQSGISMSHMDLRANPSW
Nature of the experiment: STAT6 Reporter Luciferase Assay (IL-13 stimulated HaCaT keratinocyte NanoLuc reporter cells). The experiment is classed as cell-based. As to conditions: STAT6 NanoLuc luciferase reporter, IL-13 stimulated HaCaT keratinocyte cells; read-out: Reporter EC50. In short, it runs like this:
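Luminescence from a NanoLuc reporter driven by the STAT6-responsive IL-13Ra2 promoter in HaCaT keratinocytes serves as the read-out. Compounds are given 2 h before a 4 h stimulation with 0.12 nM IL-13.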

By IC50 is commonly meant the concentration that gives 50% inhibition. High values mean a need for much substance, low ones inhibition by little substance. Broadly, the EC50 is the concentration that produces a half-maximal response. `CC(C)n1nc(C(=O)NCc2ccc(NC(=O)N(C)C)cc2)c2c1CCN(c1ccc(NS(C)(=O)=O)cn1)C2` [Example 138, N-(4-(3,3-dimethylureido)benzyl)-1-isopropyl-5-(5-(methylsulfonamido)pyridin-2-yl)-4,5,6,7-tetrahydro-1H-pyrazolo[4,3-c]pyridine-3-carboxamide] gave an IC50 in experiment [1] of 1140 nM. For the same molecule, in experiment [2], the EC50 was 248 nM.
Taken in the same sequence, the figures for `CC(C)n1nc(C(=O)NCc2ccc(NC(=O)N(C)C)cc2)c2c1C[C@H](C)N(c1ccc(C(=O)N(C)C)cn1)C2` [Example 139, (S)-5-(5-(dimethylcarbamoyl)pyridin-2-yl)-N-(4-(3,3-dimethylureido)benzyl)-1-isopropyl-6-methyl-4,5,6,7-tetrahydro-1H-pyrazolo[4,3-c]pyridine-3-carboxamide] were 7 nM and 2 nM.
Taken in the same sequence, the figures for `CC(C)n1nc(C(=O)NCc2ccc(NC(=O)N3C[C@@H](F)[C@@H](F)C3)cc2)c2c1CCN(c1ccc(C(=O)N(C)C)cn1)C2` [Example 140, N-(4-((3R,4S)-3,4-difluoropyrrolidine-1-carboxamido)benzyl)-5-(5-(dimethylcarbamoyl)pyridin-2-yl)-1-isopropyl-4,5,6,7-tetrahydro-1H-pyrazolo[4,3-c]pyridine-3-carboxamide] were 144 nM and 12 nM.
As for `CC(C)n1nc(C(=O)NCc2ccc(NC(=O)N3CC(N(C)C)C3)cc2)c2c1CCN(c1ccc(C(=O)N(C)C)cn1)C2` [Example 141, N-(4-(3-(dimethylamino)azetidine-1-carboxamido)benzyl)-5-(5-(dimethylcarbamoyl)pyridin-2-yl)-1-isopropyl-4,5,6,7-tetrahydro-1H-pyrazolo[4,3-c]pyridine-3-carboxamide], the IC50 in experiment [1] is 78 nM. Also, in experiment [2], the EC50 was 22 nM.
For `CC(C)n1nc(C(=O)NCc2ccc(NC(=O)N3C[C@@H]4CC[C@H]3CO4)cc2)c2c1CCN(c1ccc(C(=O)N(C)C)cn1)C2` [Example 142, (1S,4S)-N-(4-((5-(5-(dimethylcarbamoyl)pyridin-2-yl)-1-isopropyl-4,5,6,7-tetrahydro-1H-pyrazolo[4,3-c]pyridine-3-carboxamido)methyl)phenyl)-2-oxa-5-azabicyclo[2.2.2]octane-5-carboxamide] the same measures were 39 nM and 15 nM.
For `CC(C)n1nc(C(=O)NCc2ccc(NC(=O)N3CCCCC3)cc2)c2c1CCN(c1ccc(C(=O)N(C)C)cn1)C2` [Example 144, 5-(5-(dimethylcarbamoyl)pyridin-2-yl)-1-isopropyl-N-(4-(piperidine-1-carboxamido)benzyl)-4,5,6,7-tetrahydro-1H-pyrazolo[4,3-c]pyridine-3-carboxamide] the same measures were 292 nM and 7 nM.
For `CC(C)n1nc(C(=O)NCc2ccc(NC(=O)N(C)C)cc2)c2c1CCN(c1ccc(N3CCCS3(=O)=O)cn1)C2` [Example 146, N-(4-(3,3-dimethylureido)benzyl)-5-(5-(1,1-dioxidoisothiazolidin-2-yl)pyridin-2-yl)-1-isopropyl-4,5,6,7-tetrahydro-1H-pyrazolo[4,3-c]pyridine-3-carboxamide] the same measures were 2120 nM and 127 nM.
The molecule `CC(=O)Nc1ccc(CNC(=O)c2nn(C(C)C)c3c2CN(c2ccc(C(=O)N(C)C)cn2)CC3)cc1` [Example 147, N-(4-acetamidobenzyl)-5-(5-(dimethylcarbamoyl)pyridin-2-yl)-1-isopropyl-4,5,6,7-tetrahydro-1H-pyrazolo[4,3-c]pyridine-3-carboxamide] had an IC50 in experiment [1] of 252 nM. Moreover, the EC50 in experiment [2] came to 26 nM.
Consider `CN(C)C(=O)Nc1ccc(CNC(=O)c2nn(C(C)(C)C)c3c2CN(c2ccc(C(=O)N(C)C)cn2)CC3)cc1` [Example 148, 1-(tert-butyl)-5-(5-(dimethylcarbamoyl)pyridin-2-yl)-N-(4-(3,3-dimethylureido)benzyl)-4,5,6,7-tetrahydro-1H-pyrazolo[4,3-c]pyridine-3-carboxamide], for which, in experiment [1], the midpoint of inhibition, the IC50, lay at 176 nM. Besides, the EC50 in experiment [2] amounted to 10 nM.
In experiment [1], `CC(C)n1nc(C(=O)NCc2ccc(NC(=O)N3CC(C)(N(C)C)C3)cc2)c2c1CCN(c1ccc(C(=O)N(C)C)cn1)C2` [Example 150, N-(4-(3-(dimethylamino)-3-methylazetidine-1-carboxamido)benzyl)-5-(5-(dimethylcarbamoyl)pyridin-2-yl)-1-isopropyl-4,5,6,7-tetrahydro-1H-pyrazolo[4,3-c]pyridine-3-carboxamide] came in with an IC50 of 70 nM. Also, in experiment [2], the EC50 worked out at 18 nM.
Taken in the same sequence, the figures for `CC(C)n1nc(C(=O)NCc2ccc(NC(=O)N3CCC4(COC4)C3)cc2)c2c1CCN(c1ccc(C(=O)N(C)C)cn1)C2` [Example 152, N-(4-((5-(5-(dimethylcarbamoyl)pyridin-2-yl)-1-isopropyl-4,5,6,7-tetrahydro-1H-pyrazolo[4,3-c]pyridine-3-carboxamido)methyl)phenyl)-2-oxa-6-azaspiro[3.4]octane-6-carboxamide] were 155 nM and 31 nM.
Molecule `CC(C)n1nc(C(=O)NCc2ccc(NC(=O)N3CC[C@H](F)C3)cc2)c2c1CCN(c1ccc(C(=O)N(C)C)cn1)C2` [Example 153, (S)-5-(5-(dimethylcarbamoyl)pyridin-2-yl)-N-(4-(3-fluoropyrrolidine-1-carboxamido)benzyl)-1-isopropyl-4,5,6,7-tetrahydro-1H-pyrazolo[4,3-c]pyridine-3-carboxamide] registered an IC50 in experiment [1] of 108 nM. In experiment [2], the EC50 was 11 nM.
Regarding `CC(C)n1nc(C(=O)NCc2ccc(NC(=O)NCC3CC3)cc2)c2c1CCN(c1ccc(C(=O)N(C)C)cn1)C2` [Example 154, N-(4-(3-(cyclopropylmethyl)ureido)benzyl)-5-(5-(dimethylcarbamoyl)pyridin-2-yl)-1-isopropyl-4,5,6,7-tetrahydro-1H-pyrazolo[4,3-c]pyridine-3-carboxamide], half-maximal inhibition in experiment [1] (IC50) required 449 nM. The EC50 in experiment [2] was found to be 8 nM.
Taken in the same sequence, the figures for `CC(C)n1nc(C(=O)NCc2ccc(NC(=O)N3CCC4(CC3)COC4)cc2)c2c1CCN(c1ccc(C(=O)N(C)C)cn1)C2` [Example 156, N-(4-((5-(5-(dimethylcarbamoyl)pyridin-2-yl)-1-isopropyl-4,5,6,7-tetrahydro-1H-pyrazolo[4,3-c]pyridine-3-carboxamido)methyl)phenyl)-2-oxa-7-azaspiro[3.5]nonane-7-carboxamide] were 58 nM and 6 nM.
For `CC(C)n1nc(C(=O)NCc2ccc(NC(=O)NC3CCC3)cc2)c2c1CCN(c1ccc(C(=O)N(C)C)cn1)C2` [Example 157, N-(4-(3-cyclobutylureido)benzyl)-5-(5-(dimethylcarbamoyl)pyridin-2-yl)-1-isopropyl-4,5,6,7-tetrahydro-1H-pyrazolo[4,3-c]pyridine-3-carboxamide] the same measures were 535 nM and 8 nM.
In turn, `CC(C)n1nc(C(=O)NCc2ccc(NC(=O)N3CC(C#N)C3)cc2)c2c1CCN(c1ccc(C(=O)N(C)C)cn1)C2` [Example 158, N-(4-(3-cyanoazetidine-1-carboxamido)benzyl)-5-(5-(dimethylcarbamoyl)pyridin-2-yl)-1-isopropyl-4,5,6,7-tetrahydro-1H-pyrazolo[4,3-c]pyridine-3-carboxamide] showed an IC50 in experiment [1] of 130 nM. For the same molecule, the EC50 in experiment [2] was found to be 15 nM.
The molecule `CC(C)n1nc(C(=O)NCc2ccc(NC(=O)N3CCO[C@H](CO)C3)cc2)c2c1CCN(c1ccc(C(=O)N(C)C)cn1)C2` [Example 159, (S)-N-(4-((5-(5-(dimethylcarbamoyl)pyridin-2-yl)-1-isopropyl-4,5,6,7-tetrahydro-1H-pyrazolo[4,3-c]pyridine-3-carboxamido)methyl)phenyl)-2-(hydroxymethyl)morpholine-4-carboxamide] yielded an IC50 in experiment [1] of 59 nM. The EC50 in experiment [2] was determined as 16 nM.
The molecule `CC(C)n1nc(C(=O)NCc2ccc(NC(=O)N3CCC(C(F)F)CC3)cc2)c2c1CCN(c1ccc(C(=O)N(C)C)cn1)C2` [Example 161, N-(4-(4-(difluoromethyl)piperidine-1-carboxamido)benzyl)-5-(5-(dimethylcarbamoyl)pyridin-2-yl)-1-isopropyl-4,5,6,7-tetrahydro-1H-pyrazolo[4,3-c]pyridine-3-carboxamide] yielded an IC50 in experiment [1] of 199 nM. In experiment [2], the EC50 is 7 nM.
